Experimental data published in BindingDB's records for doi:10.1016/0960-894X(95)00417-R (1995).

How the values were obtained:
[1] = Tested in vitro for receptor binding affinity to 5-hydroxytryptamine 1D receptor in bovine caudate using [3H]5-HT radioligand
[2] = Compound was tested for the inhibition of forskolin-stimulated adenylate cyclase at 5-hydroxytryptamine 1A receptor in guinea pig

| Structure (SMILES) | IC50 [1] [nM] | EC50 [2] [nM] |
| --- | --- | --- |
| CN1CCC[C@@H]1Cc1c[nH]c2ccc(-n3cnc4cc(C#N)ccc43)cc12 [CP-161242] | 1.3 | 26 |
| CN(C)CCc1c[nH]c2ccc(-n3cnc4cccnc43)cc12 [[2-(5-Imidazo[4,5-b]pyridin-3-yl-1H-indol-3-yl)-ethyl]-dimethyl-amine] | 11 | 460 |
